This test deals with T1, mAChR hM4 (Homo sapiens, UniProt P08173).
T1 construct: expressed in transfected cells; host or cells: CHO-K1 (Chinese hamster ovary) cells
T1 sequence (P08173 1-479): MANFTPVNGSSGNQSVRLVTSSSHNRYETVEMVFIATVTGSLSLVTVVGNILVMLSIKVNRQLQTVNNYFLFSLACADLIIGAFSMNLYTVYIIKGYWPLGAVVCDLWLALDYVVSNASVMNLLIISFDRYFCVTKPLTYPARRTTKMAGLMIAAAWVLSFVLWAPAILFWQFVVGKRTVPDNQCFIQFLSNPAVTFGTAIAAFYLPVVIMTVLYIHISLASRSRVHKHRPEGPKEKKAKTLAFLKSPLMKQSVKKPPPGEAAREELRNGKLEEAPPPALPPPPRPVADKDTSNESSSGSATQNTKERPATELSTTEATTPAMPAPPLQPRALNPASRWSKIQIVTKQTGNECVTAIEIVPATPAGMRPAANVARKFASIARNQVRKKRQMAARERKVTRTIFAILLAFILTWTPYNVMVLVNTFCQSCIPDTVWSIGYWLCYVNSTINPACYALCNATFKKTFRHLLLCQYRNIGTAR
Briefly: mAChR M4 cell-based functional assay (calcium flux, potentiation of EC20 acetylcholine response). To be noted: mAChR hM4 cell-line; for EC50: >10,000 estimated for low potency compounds lacking a plateau; for Emax at 30 µM: % ACh maximum at 30 μM. The procedure, abridged: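 CHO-K1 cells expressing human M4, loaded with Fluo-4 Ca2+ dye; potentiation of an EC20 acetylcholine response read as increase in fluorescence static ratio. EC50 and Emax from concentration-dependent increase over the EC20 response.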

As a reminder, the EC50 is the midpoint of the concentration-response curve. Turning to `Cc1nc2sc(C(=O)N[C@H](C)C3CC3)c(Cl)c2c(C)c1Cl` [Compound 121, (R)-3,5-dichloro-N-(1-cyclopropylethyl)-4,6-dimethylthieno[2,3-b]pyridine-2-carboxamide], the EC50 is > 10 µM.
As usually defined, the Emax is the size of the effect at its maximum, as opposed to the concentration needed. On to `Cc1nc2sc(C(=O)NC3(C)COC3)c(Cl)c2c(C)c1Cl` [Compound 122, 3,5-dichloro-4,6-dimethyl-N-(3-methyloxetan-3-yl)thieno[2,3-b]pyridine-2-carboxamide], for which the Emax at 30 µM came out at 61% and the EC50 is 2.6 µM.
As for `Cc1nc2sc(C(=O)NC3CCC3)c(Cl)c2c(C)c1Cl` [Compound 123, 3,5-dichloro-N-cyclobutyl-4,6-dimethylthieno[2,3-b]pyridine-2-carboxamide], the Emax at 30 µM was 34% and the EC50 is > 10 µM.
On to `Cc1nc2sc(C(=O)NC3CCOC3)c(Cl)c2c(C)c1Cl` (centres unmarked) [Compound 124, 3,5-dichloro-4,6-dimethyl-N-(tetrahydrofuran-3-yl)thieno[2,3-b]pyridine-2-carboxamide], for which the Emax at 30 µM was 43% and the EC50 is 1.2 µM.
For the compound `Cc1nc2sc(C(=O)NCC3(C)COC3)c(Cl)c2c(C)c1Cl` [Compound 125, 3,5-dichloro-4,6-dimethyl-N-((3-methyloxetan-3-yl)methyl)thieno[2,3-b]pyridine-2-carboxamide], the EC50 is > 10 µM.
For `Cc1nc2sc(C(=O)NC3COC3)c(Cl)c2c(C)c1Cl` [Compound 126, 3,5-dichloro-4,6-dimethyl-N-(oxetan-3-yl)thieno[2,3-b]pyridine-2-carboxamide], the Emax at 30 µM worked out at 67% and the EC50 is 0.53 µM.
Take `Cc1nc2sc(C(=O)NC3[C@H]4C[C@@H]3C4)c(Cl)c2c(C)c1Cl` (some centres unmarked) [Compound 127, N-((1s,3s)-bicyclo[1.1.1]pentan-2-yl)-3,5-dichloro-4,6-dimethylthieno[2,3-b]pyridine-2-carboxamide]: the Emax at 30 µM stood at 35% and the EC50 is > 10 µM.
Taken in the same sequence, the figures for `Cc1nc2sc(C(=O)NC3CC(F)(F)C3)c(Cl)c2c(C)c1Cl` [Compound 128, 3,5-dichloro-N-(3,3-difluorocyclobutyl)-4,6-dimethylthieno[2,3-b]pyridine-2-carboxamide] were 33% and > 10 µM.
Take `Cc1nc2sc(C(=O)NCC3CCC3)c(Cl)c2c(C)c1Cl` [Compound 129, 3,5-dichloro-N-(cyclobutylmethyl)-4,6-dimethylthieno[2,3-b]pyridine-2-carboxamide]: the EC50 is > 10 µM.
With `Cc1cc(C)c2c(Br)c(C(=O)NC(C)C)sc2n1` [Example 1, 3-bromo-N-isopropyl-4,6-dimethylthieno[2,3-b]pyridine-2-carboxamide], the EC50 was > 10 µM.
Take `Cc1cc(C)c2c(Br)c(C(=O)NC3COC3)sc2n1` [Example 2, 3-bromo-4,6-dimethyl-N-(oxetan-3-yl)thieno[2,3-b]pyridine-2-carboxamide]: the Emax at 30 µM was 68% and the EC50 is 3.3 µM.
Taken in the same sequence, the figures for `Cc1cc(C)c2c(Br)c(C(=O)N3CCCC3)sc2n1` [Example 3, (3-bromo-4,6-dimethylthieno[2,3-b]pyridin-2-yl)(pyrrolidin-1-yl)methanone] were 44% and 3.9 µM.

(Values after patent publication US20160200733A1, “SUBSTITUTED THIENO[2,3-B]PYRIDINE-2-CARBOXAMIDE ANALOGS AS POSITIVE ALLOSTERIC MODULATORS OF THE MUSCARINIC ACETYLCHOLINE RECEPTOR M4” (Vanderbilt University, priority 2013, published 2016).)
